The source of these data is US20110269815A1, “METHODS OF REDUCING CELLULAR PROLIFERATION BY INHIBITING ACSVL3” (THE JOHNS HOPKINS UNIVERSITY, priority 2008, published 2011).

Data set [1] deals with T1, ACSBG2 (Homo sapiens, UniProt Q5FVE4).
T1 sequence (Q5FVE4 1-666): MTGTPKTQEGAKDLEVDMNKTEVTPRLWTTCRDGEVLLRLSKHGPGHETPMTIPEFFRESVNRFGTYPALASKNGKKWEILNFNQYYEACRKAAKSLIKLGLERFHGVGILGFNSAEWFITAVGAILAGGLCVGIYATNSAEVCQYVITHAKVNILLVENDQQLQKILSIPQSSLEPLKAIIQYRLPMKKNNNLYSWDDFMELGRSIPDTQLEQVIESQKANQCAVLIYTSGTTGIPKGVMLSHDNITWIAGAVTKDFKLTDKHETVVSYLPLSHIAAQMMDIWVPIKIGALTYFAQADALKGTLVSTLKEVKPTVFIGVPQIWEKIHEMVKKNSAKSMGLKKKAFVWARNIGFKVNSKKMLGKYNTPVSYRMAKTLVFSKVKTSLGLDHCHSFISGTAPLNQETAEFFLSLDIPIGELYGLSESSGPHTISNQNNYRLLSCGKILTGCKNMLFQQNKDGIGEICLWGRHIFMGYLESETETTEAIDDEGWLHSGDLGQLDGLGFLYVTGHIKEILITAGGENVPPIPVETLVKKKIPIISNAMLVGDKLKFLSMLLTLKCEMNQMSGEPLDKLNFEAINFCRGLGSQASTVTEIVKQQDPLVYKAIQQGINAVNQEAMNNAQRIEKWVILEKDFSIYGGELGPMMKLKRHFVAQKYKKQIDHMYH
The note with it: cited from earlier work.

Data set [2] has as its target T2, ACSL1 (Rattus norvegicus, UniProt P18163).
T2 sequence (P18163 1-699): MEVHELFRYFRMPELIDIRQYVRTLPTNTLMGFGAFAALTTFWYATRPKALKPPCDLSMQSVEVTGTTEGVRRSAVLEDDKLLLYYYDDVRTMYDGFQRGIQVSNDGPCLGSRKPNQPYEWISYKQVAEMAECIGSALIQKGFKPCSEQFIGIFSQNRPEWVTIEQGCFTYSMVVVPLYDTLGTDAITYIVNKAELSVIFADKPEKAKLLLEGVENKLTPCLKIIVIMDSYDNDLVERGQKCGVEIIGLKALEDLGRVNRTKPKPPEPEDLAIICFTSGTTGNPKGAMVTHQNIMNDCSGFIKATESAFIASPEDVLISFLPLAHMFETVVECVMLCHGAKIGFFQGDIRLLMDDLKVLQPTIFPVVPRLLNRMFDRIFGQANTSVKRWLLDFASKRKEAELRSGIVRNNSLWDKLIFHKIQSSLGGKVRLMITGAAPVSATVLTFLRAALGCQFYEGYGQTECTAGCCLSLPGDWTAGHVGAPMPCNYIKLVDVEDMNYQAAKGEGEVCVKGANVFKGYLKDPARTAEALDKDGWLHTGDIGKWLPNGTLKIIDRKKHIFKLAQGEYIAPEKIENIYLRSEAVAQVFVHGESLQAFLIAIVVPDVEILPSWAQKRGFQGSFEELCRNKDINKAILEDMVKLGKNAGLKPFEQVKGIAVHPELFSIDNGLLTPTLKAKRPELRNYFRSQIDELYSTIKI
The note with it: cited from earlier work.

Data set [3] has as its system cardiolipin. Particulars: cited from earlier work.
The subject of data set [4] is colon (HCT-15) cancer cell line. Particulars: cited from earlier work.
Data set [5] relates to lung (NCI-H23) cancer cell line. The note with it: cited from earlier work.
In data set [6] the target is ACSVL1 (FATP2) (Homo sapiens, UniProt O14975). The note with it: cited from earlier work.
Data set [7] concerns the target ACSL4 (Rattus norvegicus, UniProt O35547). Particulars: cited from earlier work.
Data set [8] concerns the target T3, ACSL6 (Rattus norvegicus, UniProt P33124).
T3 sequence (P33124 1-697): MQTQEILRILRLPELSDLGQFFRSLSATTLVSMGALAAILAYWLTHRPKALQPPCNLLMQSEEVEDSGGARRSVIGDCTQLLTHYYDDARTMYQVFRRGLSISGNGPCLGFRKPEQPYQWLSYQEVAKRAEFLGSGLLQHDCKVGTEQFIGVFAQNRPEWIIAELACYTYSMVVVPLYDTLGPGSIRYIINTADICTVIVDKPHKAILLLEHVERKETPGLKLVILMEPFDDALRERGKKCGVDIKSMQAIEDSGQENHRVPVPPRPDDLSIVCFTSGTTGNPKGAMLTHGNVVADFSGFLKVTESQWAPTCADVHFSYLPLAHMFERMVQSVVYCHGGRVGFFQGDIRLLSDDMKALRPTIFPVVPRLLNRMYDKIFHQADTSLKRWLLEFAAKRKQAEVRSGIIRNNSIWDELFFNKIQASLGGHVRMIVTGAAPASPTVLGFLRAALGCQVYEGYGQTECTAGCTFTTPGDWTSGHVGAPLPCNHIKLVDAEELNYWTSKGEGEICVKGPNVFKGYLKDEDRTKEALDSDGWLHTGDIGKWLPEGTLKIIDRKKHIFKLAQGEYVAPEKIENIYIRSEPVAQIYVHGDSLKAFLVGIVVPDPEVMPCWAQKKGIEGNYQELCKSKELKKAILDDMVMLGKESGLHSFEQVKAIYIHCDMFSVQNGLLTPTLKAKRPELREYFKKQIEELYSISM
Particulars: cited from earlier work.

Data set [9] concerns the target ACSVL5 (FATP4) (Mus musculus, UniProt Q91VE0). Particulars: cited from earlier work.
In data set [10] the target is T4, ACSL5 (Rattus norvegicus, UniProt O88813).
T4 sequence (O88813 1-683): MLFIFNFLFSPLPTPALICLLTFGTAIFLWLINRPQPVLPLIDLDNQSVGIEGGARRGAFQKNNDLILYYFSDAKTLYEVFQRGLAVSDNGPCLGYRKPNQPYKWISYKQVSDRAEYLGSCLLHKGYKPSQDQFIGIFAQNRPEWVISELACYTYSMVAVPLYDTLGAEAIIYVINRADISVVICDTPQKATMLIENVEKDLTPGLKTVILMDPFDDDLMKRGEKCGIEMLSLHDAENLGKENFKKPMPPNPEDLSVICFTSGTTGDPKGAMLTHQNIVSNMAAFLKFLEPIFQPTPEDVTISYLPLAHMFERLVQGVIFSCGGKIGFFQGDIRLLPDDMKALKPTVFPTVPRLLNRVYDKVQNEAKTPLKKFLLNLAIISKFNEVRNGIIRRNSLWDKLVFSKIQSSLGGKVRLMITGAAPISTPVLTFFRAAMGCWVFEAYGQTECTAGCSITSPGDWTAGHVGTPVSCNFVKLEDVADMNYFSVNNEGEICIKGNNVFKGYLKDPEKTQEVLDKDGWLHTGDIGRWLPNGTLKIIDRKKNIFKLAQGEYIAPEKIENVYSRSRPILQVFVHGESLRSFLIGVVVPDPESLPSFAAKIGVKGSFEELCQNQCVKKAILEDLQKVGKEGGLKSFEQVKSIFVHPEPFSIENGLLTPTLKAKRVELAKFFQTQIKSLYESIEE
Particulars: cited from earlier work.

For data set [11], the target named is ACSL3 (Rattus norvegicus, UniProt Q63151). Particulars: cited from earlier work.
In data set [12] the test system is brain (SF268) cancer cell line. The note with it: cited from earlier work.
The test system of data set [13] is ACSVL3 mRNA. Put plainly: Transient ACSVL3 KD in U87 cells, ACSVL3 expression by immunofluorescence and Western blot. It is filed as cell-based, human. The note with it: day 3 post-transfection, indirect immunofluorescence and Western blot. As for the experimental part:
Transient ACSVL3 KD. Four different small interfering RNA (siRNA) constructs targeting different regions of ACSVL3 mRNA were produced using the pSilencer™ kit (Applied Biosystems/Ambion; Austin Tex.). U87 cells were transfected with each construct using siPORT™ Lipid reagent (Applied Biosystems/Ambion). ACSVL3 expression was assessed on day 3 post-transfection by indirect immunofluorescence and Western blot and found to be decreased by siRNA ACSVL3-3 and -4, but not -1 or -2 (data not shown). siRNA ACSVL3-3 (5′-CACGGCTCGCGGCGCTTTA-3′ (SEQ ID NO: 1)) targets by 394-412 of ACSVL3 mRNA and ACSVL3-4 (5′-CGTCTATGGAGTCACTGTG-3′ (SEQ ID NO: 2)) targets by 1861-1879. Transient ACSVL3 KD in Mayo-22 cells was achieved by transfection with ACSVL3-3 using siPORT™ Lipid reagent. Control cells received siRNA with a scrambled nucleotide sequence (supplied by Ambion).
Immunohistochemistry, immunofluorescence, and Western blotting. […] ACSVL3 was detected on Western blots with SuperSignal West Pico chemiluminescent substrate (Pierce Biotechnology, Rockford Ill.). Total and phospho-Akt (ser473) were detected with antibodies from BD Biosciences (San Jose Calif.) and Cell Signaling Technology (Danvers Mass.), respectively, and quantitated with the LiCOR Odyssey dual wavelength infrared system. Protein was determined by the method of Lowry et al. (16).

ACSVL5 (FATP4), sequence (Q91VE0 whole entry): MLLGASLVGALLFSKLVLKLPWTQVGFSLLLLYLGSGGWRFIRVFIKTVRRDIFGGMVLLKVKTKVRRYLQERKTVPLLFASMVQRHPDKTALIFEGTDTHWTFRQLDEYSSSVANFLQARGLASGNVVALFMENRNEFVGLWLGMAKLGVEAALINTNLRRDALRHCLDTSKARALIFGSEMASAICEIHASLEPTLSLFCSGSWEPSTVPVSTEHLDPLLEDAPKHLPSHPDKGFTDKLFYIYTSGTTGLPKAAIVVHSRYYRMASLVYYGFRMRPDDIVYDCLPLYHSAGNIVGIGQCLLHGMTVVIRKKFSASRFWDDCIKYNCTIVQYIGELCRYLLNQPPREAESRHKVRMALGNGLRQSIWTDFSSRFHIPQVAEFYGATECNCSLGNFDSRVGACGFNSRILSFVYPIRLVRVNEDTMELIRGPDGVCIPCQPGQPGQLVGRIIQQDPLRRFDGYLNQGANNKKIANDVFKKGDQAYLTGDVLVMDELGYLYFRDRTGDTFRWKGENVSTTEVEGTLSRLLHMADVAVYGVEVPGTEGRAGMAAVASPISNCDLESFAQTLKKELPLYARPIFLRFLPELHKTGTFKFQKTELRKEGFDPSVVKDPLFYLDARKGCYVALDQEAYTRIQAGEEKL
ACSL4, sequence (O35547 whole entry): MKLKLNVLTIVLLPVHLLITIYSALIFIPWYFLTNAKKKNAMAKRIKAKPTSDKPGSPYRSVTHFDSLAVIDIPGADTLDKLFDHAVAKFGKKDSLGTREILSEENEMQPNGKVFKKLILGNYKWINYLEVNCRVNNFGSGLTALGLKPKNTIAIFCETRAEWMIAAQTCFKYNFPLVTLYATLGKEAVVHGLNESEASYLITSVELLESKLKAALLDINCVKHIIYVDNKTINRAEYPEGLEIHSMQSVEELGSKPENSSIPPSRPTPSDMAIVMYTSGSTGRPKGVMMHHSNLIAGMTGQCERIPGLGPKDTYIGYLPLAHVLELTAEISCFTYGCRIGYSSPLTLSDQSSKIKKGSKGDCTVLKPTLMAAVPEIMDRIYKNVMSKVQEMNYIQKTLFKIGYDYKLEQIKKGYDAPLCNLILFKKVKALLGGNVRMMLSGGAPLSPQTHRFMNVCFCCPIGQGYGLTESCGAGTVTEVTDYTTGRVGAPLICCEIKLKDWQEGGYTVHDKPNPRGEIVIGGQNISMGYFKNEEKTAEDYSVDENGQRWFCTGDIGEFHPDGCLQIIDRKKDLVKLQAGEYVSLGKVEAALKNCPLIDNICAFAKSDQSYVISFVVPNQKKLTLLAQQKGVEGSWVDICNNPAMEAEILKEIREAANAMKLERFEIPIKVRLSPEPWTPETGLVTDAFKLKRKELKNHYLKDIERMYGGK
ACSVL1 (FATP2), sequence (O14975 whole entry): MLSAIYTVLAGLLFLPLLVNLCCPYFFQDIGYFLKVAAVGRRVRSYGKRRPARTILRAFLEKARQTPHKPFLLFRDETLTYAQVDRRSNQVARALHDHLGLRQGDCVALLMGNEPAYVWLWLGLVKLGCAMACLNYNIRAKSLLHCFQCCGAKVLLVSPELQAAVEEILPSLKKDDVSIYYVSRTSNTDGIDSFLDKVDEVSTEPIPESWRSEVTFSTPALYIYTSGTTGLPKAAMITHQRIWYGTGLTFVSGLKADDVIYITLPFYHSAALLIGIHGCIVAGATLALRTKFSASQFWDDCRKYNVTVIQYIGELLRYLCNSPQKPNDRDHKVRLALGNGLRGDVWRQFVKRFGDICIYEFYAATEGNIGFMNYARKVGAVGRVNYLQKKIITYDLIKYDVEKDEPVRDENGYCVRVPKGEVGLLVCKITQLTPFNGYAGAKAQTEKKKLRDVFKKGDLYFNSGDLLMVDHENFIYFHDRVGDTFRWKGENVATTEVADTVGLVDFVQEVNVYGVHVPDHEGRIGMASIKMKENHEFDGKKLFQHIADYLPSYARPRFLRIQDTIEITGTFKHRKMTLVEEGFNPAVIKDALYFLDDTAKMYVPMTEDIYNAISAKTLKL
ACSL3, sequence (Q63151 whole entry): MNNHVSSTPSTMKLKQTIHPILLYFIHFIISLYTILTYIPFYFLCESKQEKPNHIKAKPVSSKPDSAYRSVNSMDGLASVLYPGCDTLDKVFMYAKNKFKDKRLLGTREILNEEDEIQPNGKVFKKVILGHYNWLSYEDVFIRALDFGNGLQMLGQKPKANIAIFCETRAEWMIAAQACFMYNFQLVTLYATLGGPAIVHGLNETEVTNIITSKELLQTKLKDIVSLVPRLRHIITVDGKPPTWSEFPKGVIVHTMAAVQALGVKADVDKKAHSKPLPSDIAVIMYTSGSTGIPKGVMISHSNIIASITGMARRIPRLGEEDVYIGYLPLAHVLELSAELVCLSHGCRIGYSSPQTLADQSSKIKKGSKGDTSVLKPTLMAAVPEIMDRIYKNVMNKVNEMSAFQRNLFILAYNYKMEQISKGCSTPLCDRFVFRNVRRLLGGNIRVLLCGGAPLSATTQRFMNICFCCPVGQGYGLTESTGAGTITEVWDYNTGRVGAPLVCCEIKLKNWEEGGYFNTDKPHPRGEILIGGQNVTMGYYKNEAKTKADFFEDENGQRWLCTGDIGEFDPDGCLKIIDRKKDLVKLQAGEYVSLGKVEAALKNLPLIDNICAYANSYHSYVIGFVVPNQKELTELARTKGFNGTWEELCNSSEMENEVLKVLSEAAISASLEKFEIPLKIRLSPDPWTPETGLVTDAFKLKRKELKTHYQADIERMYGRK

`CCC/C=C/C/C=C/C=C/C=N/NN=O` [triacsin c]: the “inhibition of ACSBG2” value in data set [1] is listed as “does not inhibit”. Moreover, the “inhibition of ACSL1” value in data set [2] is recorded as “inhibits”. The “mitochondrial level of cardiolipin” value in data set [3] is listed as “decreased”. Also, the caspase activity result in data set [4], in data set [5] and in [12] was “induced caspase activity” each time. In addition, the “inhibition of ACSVL1 (FATP2)” value in data set [6] is recorded as “inhibits”. The “inhibition of ACSL4” value in data set [7] is listed as “inhibits”. Moreover, the “inhibition of ACSL6” value in [8] is reported as “does not inhibit”. The “inhibition of ACSVL5 (FATP4)” value in data set [9] is recorded as “does not inhibit”. Besides, in data set [10], the “inhibition of ACSL5” value is “does not inhibit”. Besides, the “inhibition of ACSL3” value in data set [11] is on record as “inhibits”.
Consider “siRNA ACSVL3-4: siRNA 5′-CGTCTATGGAGTCACTGTG-3′ (SEQ ID NO: 2), targets 1861-1879 of ACSVL3 mRNA (listed as DNA, chemistry not given here)”, for which the ACSVL3 expression entry in data set [13] was “decreased”.
